From patent publication US10183940B2, “Aryl and heteroaryl-fused tetrahydro-1,4-oxazepine amides as somatostatin receptor subtype 4 (SSTR4) agonists” (Boehringer Ingelheim International GmbH, priority 2014, dated 2019)

Assays:
[1] = biological target: human Somatostatin 4 receptor (SSTR4) (Homo sapiens (Human), UniProt P31391); assay: cAMP assay with human Somatostatin 4 receptor; assay type: cell-based; conditions: hSSTR4 expressing H4 cells, inhibition of Forskolin-stimulated cAMP; read-out: SSTR4 agonism EC50
Chain of human Somatostatin 4 receptor (SSTR4) (P31391 whole entry): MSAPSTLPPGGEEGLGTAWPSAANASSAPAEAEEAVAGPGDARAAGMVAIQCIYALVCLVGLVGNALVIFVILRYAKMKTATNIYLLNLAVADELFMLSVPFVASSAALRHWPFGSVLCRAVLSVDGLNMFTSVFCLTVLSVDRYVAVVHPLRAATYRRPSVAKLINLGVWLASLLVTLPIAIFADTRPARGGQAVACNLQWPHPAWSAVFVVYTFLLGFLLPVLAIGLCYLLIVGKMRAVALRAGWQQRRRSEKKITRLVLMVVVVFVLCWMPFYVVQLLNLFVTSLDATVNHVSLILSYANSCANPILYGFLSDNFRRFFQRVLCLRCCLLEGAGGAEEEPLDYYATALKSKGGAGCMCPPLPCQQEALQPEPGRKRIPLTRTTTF
Protocol: Method description for cAMP assay with human Somatostatin 4 receptor.
The activation of the SSTR4 receptor (Gi coupled) causes an inhibition of intracellular cAMP after stimulation with Forskolin, which can be quantifiable by use of a suitable assay Kit and an adequate plate reader. This technique is used to characterize pharmacological effects of the SSTR4 receptor agonists by use of hSSTR4 expressing H4 cells.
Compounds are dissolved and diluted in DMSO. The final test solution contains […]. The cAMP standard (Lance cAMP 384 Kit; PerkinElmer, Cat #AD0264) is prepared in assay buffer (HBSS with 0.1% BSA, 5 mM HEPES, […], pH 7.4) containing 1% DMSO and the cAMP standard curve is included at least on one plate. Cells are centrifuged and suspended in assay buffer (incl. 1:100 diluted Alexa antibody).
For the assay 5 μl of a cell suspension (approximately 5000 cells/well)—incl. Alexa antibody (diluted 1:100) are added into a 384 well MTP microtitre plate excepting one row or column (depending on the plate layout), which is reserved for the standard curve. Then 2 μl of compound sample is added as concentration response curve (e.g. 1e-5 M to 6e-10 M), usually in triplicates. Each assay contains incubations with vehicle controls instead of compound as controls for non-inhibited cAMP generation (100% CTL; ‘high values’) and incubations with 1 μM Somatosatin as controls for full inhibition and background (0% CTL; ‘low values’). After approximately 10-15 min incubation time 3 μl Forskolin (dissolved in DMSO, final conc. 15 μM) is added. Then the plates are shaken briefly and incubated for 60 min at room temperature. After 60 min 10 μl of the detection mix is added into all wells followed by an additional incubation period of 1 h. The plates are read in a suitable plate reader.
The analysis of the data is based on the “ratio” of the time-resolved fluorescence measurements of donor and acceptor fluorophore (Ex: 320 nm; Em1: 665 nm; Em2: 615 nm; ratio 665/615). From this ratio, cAMP concentrations are calculated from standard curve and the EC50 is estimated by least square curve fit program.

human SSTR4 = human SSTR4 (Homo sapiens (Human), UniProt P31391); assay: Radioligand binding assay, human SSTR4
Chain of human SSTR4 (P31391 whole entry): as above
From the text: (§1) Radioligand Binding Assays
(§2) Method description for binding assays with human Somatostatin receptors by use of CHO cell membranes expressing recombinant human SSTR1 or human SSTR2 or human SSTR3 or human SSTR4 or human SSTR5
(§3) Receptor binding assays refer to a technique in which labeled receptor ligands are used to detect binding to a receptor. In competition experiments test compounds, which are not labeled, compete with the binding side of a labeled ligand. The displacement of the labeled ligand by the test compound leads to a decreased signal.
(§4) For the binding experiments 200 μL of membrane homogenate from one of the following protein amounts is used: hSSTR1 (40 μg/well); hSSTR2 (25 μg/well); hSSTR3 (1.5 μg/well); hSSTR4 (0.5 μg/well); hSSTR5 (25 μg/well). The homogenate is incubated with 0.05 nM of radioligand ([3-125I-Tyr]-Somatostatin-(1-14)) in addition to increasing concentrations of a test compound or vehicle (100% binding) in a total volume of 250 μL using a Hepes buffer (10 mM, EDTA 1 mM, MgCl2 5 mM, pH7.6, BSA 0.5%, Bacitracin 0.003%, DMSO 1% for 180 min at room temperature. The incubation is terminated by filtration with ice cold NaCl 0.9% through polyethyleneimine treated (0.3%) GF/B glass fiber filters using a cell harvester. The protein-bound radioactivity is measured in a suitable reader. The non-specific binding is defined as radioactivity bound in the presence of 1 μM Somatostatin-14 during the incubation period.
(§5) The analysis of the concentration-binding curves is performed by computer-assisted nonlinear least square curve fitting method using the model of one receptor binding site.

human SSTR1 = human SSTR1 (Homo sapiens (Human), UniProt P30872); assay: Radioligand binding assay, human SSTR1
Chain of human SSTR1 (P30872 whole entry): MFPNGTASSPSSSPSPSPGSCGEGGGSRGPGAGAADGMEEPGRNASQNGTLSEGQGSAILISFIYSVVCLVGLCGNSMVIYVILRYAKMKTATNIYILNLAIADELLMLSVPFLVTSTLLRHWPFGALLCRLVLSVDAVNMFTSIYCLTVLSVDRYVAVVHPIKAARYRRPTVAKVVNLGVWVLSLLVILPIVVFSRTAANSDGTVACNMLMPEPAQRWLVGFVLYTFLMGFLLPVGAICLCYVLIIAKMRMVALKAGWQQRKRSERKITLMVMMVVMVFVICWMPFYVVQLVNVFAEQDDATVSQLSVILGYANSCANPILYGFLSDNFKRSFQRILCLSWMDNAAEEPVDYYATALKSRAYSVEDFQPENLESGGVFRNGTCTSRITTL
From the text: as §1, §2, §3, §4, §5

human SSTR2 = human SSTR2 (Homo sapiens (Human), UniProt P30874); assay: Radioligand binding assay, human SSTR2
Chain of human SSTR2 (P30874 whole entry): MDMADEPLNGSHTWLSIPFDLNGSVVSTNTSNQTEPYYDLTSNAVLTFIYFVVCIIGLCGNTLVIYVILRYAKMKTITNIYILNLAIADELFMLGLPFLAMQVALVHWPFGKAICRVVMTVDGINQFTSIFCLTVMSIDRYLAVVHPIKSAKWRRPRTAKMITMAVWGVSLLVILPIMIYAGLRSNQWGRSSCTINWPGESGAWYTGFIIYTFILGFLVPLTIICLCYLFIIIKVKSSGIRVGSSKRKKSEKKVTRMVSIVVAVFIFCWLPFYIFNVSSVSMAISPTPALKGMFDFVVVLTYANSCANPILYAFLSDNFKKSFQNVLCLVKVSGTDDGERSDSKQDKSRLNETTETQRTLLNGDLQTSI
From the text: as §1, §2, §3, §4, §5

human SSTR3 = human SSTR3 (Homo sapiens (Human), UniProt P32745); assay: Radioligand binding assay, human SSTR3
Chain of human SSTR3 (P32745 whole entry): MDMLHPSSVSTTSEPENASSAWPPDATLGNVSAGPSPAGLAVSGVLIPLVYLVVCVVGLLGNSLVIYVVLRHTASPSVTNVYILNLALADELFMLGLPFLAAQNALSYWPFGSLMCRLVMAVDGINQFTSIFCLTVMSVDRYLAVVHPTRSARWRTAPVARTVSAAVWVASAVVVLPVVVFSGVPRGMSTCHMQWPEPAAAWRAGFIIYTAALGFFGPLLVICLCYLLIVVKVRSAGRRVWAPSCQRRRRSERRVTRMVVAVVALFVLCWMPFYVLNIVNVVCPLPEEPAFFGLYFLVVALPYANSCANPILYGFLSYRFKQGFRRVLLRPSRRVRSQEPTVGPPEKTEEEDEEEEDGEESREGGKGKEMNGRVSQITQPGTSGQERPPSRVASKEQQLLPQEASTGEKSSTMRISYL
From the text: as §1, §2, §3, §4, §5

human SSTR5 = human SSTR5 (Homo sapiens (Human), UniProt P35346); assay: Radioligand binding assay, human SSTR5
Chain of human SSTR5 (P35346 whole entry): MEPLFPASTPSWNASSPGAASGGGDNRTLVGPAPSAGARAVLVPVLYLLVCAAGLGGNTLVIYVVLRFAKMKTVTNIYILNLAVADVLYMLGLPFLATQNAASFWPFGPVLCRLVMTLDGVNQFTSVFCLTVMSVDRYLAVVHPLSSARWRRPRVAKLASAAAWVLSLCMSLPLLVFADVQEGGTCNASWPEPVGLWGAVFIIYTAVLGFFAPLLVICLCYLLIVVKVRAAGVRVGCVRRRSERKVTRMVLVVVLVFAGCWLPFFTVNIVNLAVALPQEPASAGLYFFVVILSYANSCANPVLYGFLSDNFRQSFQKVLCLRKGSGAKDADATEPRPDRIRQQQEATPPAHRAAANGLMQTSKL
From the text: as §1, §2, §3, §4, §5

[2] = Metabolic stability in human liver microsomes; assay type: in vitro ADME; conditions: pH 7.6; pooled human liver microsomes, 37° C., 1 μM test compound, NADPH; read-out: Half-life t1/2
Protocol: The metabolic stability of the compounds according to the invention may be investigated as follows:
The metabolic degradation of the test compound is assayed at 37° C. with pooled human liver microsomes. The final incubation volume of 100 μl per time point contains TRIS buffer pH 7.6 at room temperature (0.1 M), magnesium chloride (5 mM), microsomal protein (1 mg/mL) and the test compound at a final concentration of 1 μM. Following a short preincubation period at 37° C., the reactions are initiated by addition of beta-nicotinamide adenine dinucleotide phosphate, reduced form (NADPH, 1 mM), and terminated by transferring an aliquot into solvent after different time points. After centrifugation (10000 g, 5 min), an aliquot of the supernatant is assayed by LC-MS/MS for the amount of parent compound. The half-life is determined by the slope of the semi-logarithmic plot of the concentration-time profile.

SMILES | EC50 [1] [µM] | Ki (human SSTR4) [µM] | Ki (human SSTR1) [µM] | Ki (human SSTR2) [µM] | Ki (human SSTR3) [µM] | Ki (human SSTR5) [µM] | half-life at 1 μM [2] [h]
Cc1nnc(C(C)(C)NC(=O)c2cccc3c2OCCNC3)c2ccccc12 [Example 26] | 0.0025 | 0.065 | 9.45 | 9.6 | 8.62 | 9.75 | > 2.17
Cc1cccc2c(C(C)(C)NC(=O)c3cccc4c3OCCNC4)n[nH]c12 [Example 33] | 0.0008 | 0.0217 | 9.45 | 9.6 | 8.62 | 9.75 | 1.65
Cn1nc(C(C)(C)NC(=O)c2ccnc3c2OCCNC3)c2ccccc21 [Example 20] | 0.0175 | 0.574 | 9.45 | 9.6 | 8.62 | 9.75 | > 2.17
